Test results published in patent US7615361B2, “Toxicity screening methods” (Ceetox, Inc., priority 2006, dated 2009).

What was measured:
[1] = system: H4IIE cells; assay: MemTox membrane leakage (AK / α-GST); type: cell-based, rat; details: rat, 24 h
How it was run: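 H4IIE rat hepatoma cells were exposed to compound diluted in complete culture medium. Leakage of adenylate kinase (luminescence) and/or α-GST (ELISA, 450/650 nm) was measured in the medium collected at the end of exposure. Percent live cells was computed relative to 1 mM digitonin-treated maximum release, as means of n=3-7.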

[2] = system: reactive oxygen species (ROS); assay: DCFDA fluorescence; type: cell-based, rat; details: 5 μM
Description: The production of reactive oxygen species (ROS) can be measured using 2′-7′dichloro-dihydrofluorescein diacetate (DCFDA).
Dihydro-2′,7′-dichloroflorescin-diacetate (DCFDA) for Monitoring Peroxide Formation: DCFDA (Sigma C-6827) was dissolved in DMSO at a concentration of 205 mM. The stock was diluted to 50 μM in phosphate buffered saline. Cells were preloaded with DCFDA for 1 hour prior to dosing with test compounds. Positive control wells were dosed with freshly prepared 300 μM t-Butyl hydroperoxide (tBHP). After compound exposure, the plates were washed with phosphate buffered saline and read at 485/530 in a Packard Fusion plate reader.
Dihydro-2′,7′-dichloroflorescin-diacetate (DCFDA) for Monitoring Peroxide Formation: Plates were read at 485/530 in a Packard Fusion plate reader or equivalent.

[3] = Cell number (propidium iodide); type: cell-based; details: neonatal rat cardiomyocytes; rat cardiomyocytes (CM), 24 HR exposure; read-out: Cell Number TC50
Description: One test compound (Compound A) was received as dry powder and evaluated for potential cytotoxicity in a battery of in vitro assays. The compound was tested using both rat cardiomyocytes (CM) from rat neonates and a rat hepatoma (H4IIE) cell line. […] Camptothecin and rotenone were included as positive control compounds. The cell supernatant or the cells themselves were harvested for biochemical analysis. General cytotoxicity was evaluated by monitoring membrane integrity, mitochondrial function, cell proliferation, oxidative stress, and apoptosis. In addition, interaction with P-glycoprotein (PgP) on H4IIE cells and solubility of the test compound were also assessed. The means of each exposure group (n=3-7) were calculated for each assay performed. Intra assay variation well-to-well was typically less than 10% with plate to plate variation typically less than 20%.
Cell Proliferation: Cell proliferation in each well was measured with propidium iodide (PI). […] The 15 nm shift enhances PI fluorescence approximately 20 times while the excitation maxima are shifted 30-40 nm. During method development experiments, it was determined that Triton-X-100 was the best solution to permeabilize the H4IIE cells thereby allowing the PI access to intracellular RNA and DNA. Fluorescence was measured using a Packard Fusion plate reader or equivalent reader at 540 nm excitation and 610 nm emission. […]

[4] = system: C32 cells; assay: Predicted Ctox from Tox-Panel; type: cell-based, human; details: C32, 24 HR
Description: Studies such as these indicate that a preferred concentration for setting Ctox is the highest concentration at which there is no observed effect on any of the indicators being measured in the cluster analysis, especially a 24-hour cluster analysis. […] It will be apparent that 24 hour assays are more time-effective, and consequently, the 24 hour NOEL/Ctox represents a preferred data point to select as Ctox in a CATS assay. It will also be apparent that, with further time studies, it may be possible to select an equally suitable Ctox at other CATS assay time points (e.g., between 24 and 72 hours, or less than 24 hours).
In certain embodiments, the predicting comprises performing concentration response analyses of measurements from at least three separate assays that are employed in the cluster analysis. For example, in the cell health cluster, such predicting will involve monitoring the concentration response effect of the compound on a first health indicator which monitors cellular replication, a second cell health indicator which monitors mitochondrial function, and a third cell health indicator which monitors membrane integrity. Of course, it is understood that fourth, fifth, sixth or more cell health indicators also may be employed. From these concentration response analyses, the highest concentration of the chemical compound at which a measurable toxic effect of the chemical compound is not observable, i.e. NOEL, is determined and the Ctox is identified as the concentration that correlates to the NOEL. In choosing the concentrations of the compound for analysis, one of skill in the art should devise a dose response regimen which is selected to provide an indication of cell health at concentrations of at least two concentration values higher than the Ctox concentration.
The results are summarized in Tables 14-17 and in FIGS. 83-102. Table 14 compares the test compound TC50 values for each assay endpoint. Test compounds are rank-ordered from most to least toxic based on their TC50 values and overall shape of the response curves. The Ctox value, or estimated sustained blood concentration where toxicity would first be expected to occur in a rat 14-day repeated dose study, is also included in this table. Negative and positive controls are included with every run. Assay response is continually monitored to assure reliable results. […] Table 15 summarizes oxidative stress and apoptosis data, Table 16 summarizes the solubility data, and Table 17 provides information on interaction with PgP.
The Ctox value was developed using 24 hr in vitro (H4IIE) toxicity data and was validated by retrospectively evaluating compounds across different classes of drugs in 14-day rat studies in which compounds were administered on a daily basis and pharmacokinetic data was available. […] Thus, Ctox values are only determined for the 24 hr in vitro results. In this example, Ctox values could not be estimated due to low toxicity in most of the cell lines.

Row | SMILES | less toxic in liver cells than in the cardiomyocytes (TC50 for membrane integrity) [1] | increase in DCFDA (ROS related) fluorescence [2] [fold] | CC50 at 24 h [3] [µM] | Predicted Ctox [4] [µM]
1 | COc1cccc2c1C(=O)c1c(O)c3c(c(O)c1C2=O)C[C@@](O)(C(=O)CO)C[C@@H]3O[C@H]1C[C@H](N)[C@H](O)[C@H](C)O1 [ADRIAMYCIN, Adriamycin] | approximately 5 fold | 4 | – | –
2 | CC[C@@]1(O)C(=O)OCc2c1cc1n(c2=O)Cc2cc3ccccc3nc2-1 [CAMPTOTHECIN, Camptothecin] | – | – | 293 | 0.1
